In one experiment the target is T1, Human αvβ3 (Homo sapiens, UniProt P05106+P06756).
T1 construct: purchased Chemicon International Inc., Temecula, Calif
Description: In vitro solid phase purified αvβ3 binding assay (vitronectin/αvβ3). Particulars: for IC50: read-out: Antagonist IC50 Activity αVβ3. Here is the method: In Vitro Solid Phase Purified αvβ3 Binding Assay
(§1) The vitronectin/αvβ3 binding assay methods were derived from Mehta et al. (Biochem J,. 1998, 330, 861). Human αvβ3 (Chemicon International Inc., Temecula, Calif.), at a concentration of 1 μg/ml dissolved in Tris buffer (20 mM Tris, 1 mM CaCl2, 1 mM MgCl2, 10 μM MnCl2, 150 mM NaCl), was immobilized on Immulon 96 well plates (Dynex Technologies, Chantilly, Va.) overnight at 4° C. Plates were washed and treated with blocking buffer (3% BSA in Tris buffer) for 2 h at 37° C. Plates were then rinsed 2 times with assay buffer comprised of Tris buffer. Synthesized compounds were added to wells in duplicate immediately prior to the addition of 2 nM vitronectin (Sigma, St. Louis, Mo.). Following a 3 hour incubation at 37° C., plates were washed 5 times in assay buffer. An anti-human vitronectin IgG rabbit polyclonal antibody (Calbiochem, San Diego, Calif.) was added (1:2000) and plates were incubated for 1 hour at room temperature. VectaStain ABC peroxidase kit reagents (Vector Laboratories, Burlingame, Calif.) employing a biotin labeled anti-rabbit IgG, were utilized for detection of bound antibody. Plates were read at 490 nm on a Molecular Devices (Sunnyvale, Calif.) microplate reader.

Another experiment addresses T2, human purified αVβ5 (Homo sapiens, UniProt P06756+P18084).
T2 construct: purchased Chemicon International, Inc
The experiment can be described thus: In vitro solid phase purified αvβ5 binding assay (vitronectin/αVβ5). Particulars: inhibition of vitronectin binding to immobilized αVβ5; read-out: Antagonist IC50 Activity αVβ5. As for the experimental part: as §1
In Vitro Solid Phase Purified αvβ5 Binding Assay
The vitronectin/αVβ5 binding assay method was performed in the same manner as the vitronectin/αVβ3 binding assay of Example 2, with the difference that 1 μg/mL of human purified αVβ5 (Chemicon International, Inc.) was immobilized onto Immulon 96 well plates (Dynex Technologies) instead of αVβ3. All other aspects of the assay including buffers, reagents and incubation times remain unchanged.

Like-named read-outs stand apart in the source and are kept apart here.

T2 sequence (P06756 31-889 limits assumed): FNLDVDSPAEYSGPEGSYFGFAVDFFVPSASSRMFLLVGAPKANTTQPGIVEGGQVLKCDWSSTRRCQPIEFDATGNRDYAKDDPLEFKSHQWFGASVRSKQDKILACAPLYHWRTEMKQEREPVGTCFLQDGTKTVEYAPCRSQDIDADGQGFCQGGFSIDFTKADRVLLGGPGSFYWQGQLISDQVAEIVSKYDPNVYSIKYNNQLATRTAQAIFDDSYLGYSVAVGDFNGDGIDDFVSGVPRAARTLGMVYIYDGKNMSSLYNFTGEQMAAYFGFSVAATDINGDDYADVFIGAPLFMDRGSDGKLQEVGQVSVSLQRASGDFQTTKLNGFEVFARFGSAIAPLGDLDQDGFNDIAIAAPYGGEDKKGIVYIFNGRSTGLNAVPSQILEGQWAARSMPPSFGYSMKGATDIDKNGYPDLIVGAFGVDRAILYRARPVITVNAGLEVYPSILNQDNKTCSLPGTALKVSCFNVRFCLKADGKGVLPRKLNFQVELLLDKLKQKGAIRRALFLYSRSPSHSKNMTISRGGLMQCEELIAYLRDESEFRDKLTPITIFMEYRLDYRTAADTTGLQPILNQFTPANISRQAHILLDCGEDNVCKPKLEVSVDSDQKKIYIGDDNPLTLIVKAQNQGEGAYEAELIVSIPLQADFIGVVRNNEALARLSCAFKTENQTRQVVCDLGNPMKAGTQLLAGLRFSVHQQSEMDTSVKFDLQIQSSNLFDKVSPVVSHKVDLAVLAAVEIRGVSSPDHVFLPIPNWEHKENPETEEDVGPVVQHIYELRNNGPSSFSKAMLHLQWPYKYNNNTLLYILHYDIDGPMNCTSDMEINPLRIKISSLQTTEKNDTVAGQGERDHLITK
T2 sequence (P06756 891-1048 partner limits assumed): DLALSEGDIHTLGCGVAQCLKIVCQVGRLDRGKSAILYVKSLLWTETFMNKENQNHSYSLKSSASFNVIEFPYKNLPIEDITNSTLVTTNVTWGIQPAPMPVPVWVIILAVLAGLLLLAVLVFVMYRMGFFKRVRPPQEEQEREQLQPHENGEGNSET
T2 sequence (P18084 24-799): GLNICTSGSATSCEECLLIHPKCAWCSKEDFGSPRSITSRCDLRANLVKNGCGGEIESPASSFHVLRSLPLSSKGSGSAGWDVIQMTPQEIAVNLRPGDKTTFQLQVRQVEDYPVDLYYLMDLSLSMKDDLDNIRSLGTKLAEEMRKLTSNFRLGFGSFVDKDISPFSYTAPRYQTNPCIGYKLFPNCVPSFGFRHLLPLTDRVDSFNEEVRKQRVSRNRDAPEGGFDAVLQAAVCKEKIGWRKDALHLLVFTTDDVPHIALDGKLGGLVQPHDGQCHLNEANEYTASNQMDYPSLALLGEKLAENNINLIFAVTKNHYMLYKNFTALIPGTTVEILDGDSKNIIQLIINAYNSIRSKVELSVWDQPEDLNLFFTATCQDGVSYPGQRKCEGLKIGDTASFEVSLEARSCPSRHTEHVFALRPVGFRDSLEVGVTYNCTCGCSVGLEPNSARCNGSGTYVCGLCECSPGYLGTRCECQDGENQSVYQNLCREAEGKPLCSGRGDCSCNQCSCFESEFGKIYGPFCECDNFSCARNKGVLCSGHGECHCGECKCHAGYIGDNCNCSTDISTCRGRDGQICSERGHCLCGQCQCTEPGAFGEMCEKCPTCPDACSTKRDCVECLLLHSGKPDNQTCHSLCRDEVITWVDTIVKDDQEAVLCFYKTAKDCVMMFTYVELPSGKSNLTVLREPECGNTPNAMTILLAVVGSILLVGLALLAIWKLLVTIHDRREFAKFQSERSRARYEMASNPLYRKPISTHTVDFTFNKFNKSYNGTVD
T1 sequence (P06756 31-889 limits assumed): as the sequence (P06756 31-889 limits assumed) above
T1 sequence (P06756 891-1048 partner limits assumed): as the sequence (P06756 891-1048 partner limits assumed) above
T1 sequence (P05106 27-788): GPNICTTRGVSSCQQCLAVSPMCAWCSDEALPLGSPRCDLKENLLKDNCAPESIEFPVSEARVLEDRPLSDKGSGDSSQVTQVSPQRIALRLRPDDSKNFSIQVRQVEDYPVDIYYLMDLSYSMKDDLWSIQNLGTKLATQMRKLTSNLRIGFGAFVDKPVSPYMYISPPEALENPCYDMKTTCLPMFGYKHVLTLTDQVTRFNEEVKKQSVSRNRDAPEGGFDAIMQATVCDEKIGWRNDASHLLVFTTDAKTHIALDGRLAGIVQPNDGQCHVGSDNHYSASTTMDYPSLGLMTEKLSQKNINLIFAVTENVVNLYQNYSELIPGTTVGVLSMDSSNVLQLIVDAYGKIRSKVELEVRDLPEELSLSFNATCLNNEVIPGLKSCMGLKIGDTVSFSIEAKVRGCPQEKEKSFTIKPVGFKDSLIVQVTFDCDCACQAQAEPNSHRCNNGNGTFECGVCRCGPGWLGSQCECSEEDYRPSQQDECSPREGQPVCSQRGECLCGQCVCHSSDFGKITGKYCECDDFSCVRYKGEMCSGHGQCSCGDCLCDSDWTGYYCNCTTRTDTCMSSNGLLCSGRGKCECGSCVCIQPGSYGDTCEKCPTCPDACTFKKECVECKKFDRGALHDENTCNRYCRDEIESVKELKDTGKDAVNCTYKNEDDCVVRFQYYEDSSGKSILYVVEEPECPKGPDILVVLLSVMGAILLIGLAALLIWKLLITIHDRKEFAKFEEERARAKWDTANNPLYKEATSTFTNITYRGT

Take `O=C(O)C[C@@H]1c2ccccc2[C@@H]2CN(C(=O)Cc3cccc(NC4=NCCCN4)c3)CC[C@H]12` (single isomer, unassigned) [Cpd 1, (3-{2-[3-(1,4,5,6,-Tetrahydro-pyrimidin-2-ylamino)-phenyl]-acetyl}-2,3,4,4a,9,9a-hexahydro-1H-3-aza-fluoren-9-yl)-acetic acid]: the IC50 came out at 66 ± 6 nM on Human αvβ3 and 1020 ± 180 nM on human purified αVβ5.
As to `O=C(O)CC1c2ccccc2C2CCN(C(=O)CCc3ccc4c(n3)NCCC4)CC21` (racemic) [Cpd 11], the IC50 on Human αvβ3 is greater than 1 nM.
As for `O=C(O)CC1c2ccccc2C2CCN(C(=O)CCCc3ccc4c(n3)NCCC4)CC21` (stereo not drawn) [Cpd 9, [2-(4-5,6,7,8-Tetrahydro-[1,8]naphthyridine-2-yl-butyryl)-2,3,4,4a,9,9a-hexahydro-1H-indeno[2,1-c]pyridin-9-yl]-acetic acid], at Human αvβ3, the “Antagonist activity αVβ3, % @ 50 μM” value is listed as 41% @.
`O=C(O)CC1c2ccccc2C2CN(C(=O)CCc3ccc4c(n3)NCCC4)CC12` (single isomer, unassigned) [Cpd 13, [2-(3-5,6,7,8-Tetrahydro-[1,8]naphthyrin-2-yl-propionyl)-1,2,3,3a,8,8a-hexahydro-2-aza-cyclopenta[a]inden-8-yl]-acetic acid]: the IC50 on Human αvβ3 stood at 290 ± 90 nM; on human purified αVβ5, 260 ± 60 nM.
Regarding `O=C(O)CC1c2ccccc2C2CN(C(=O)CCCNc3ccccn3)CCC12` (stereo not drawn) [Cpd 7, {3-[4-(Pyridin-2-ylamino)-butyryl]-2,3,4,4a,9,9a-hexahydro-1H-3-aza-fluoren-9-yl}-acetic acid], at Human αvβ3 (inhibition of 2 nM vitronectin binding to immobilized αvβ3), the half-inhibitory concentration (IC50) was greater than 1 nM.
As to `O=C(O)CC1c2ccccc2C2CN(C(=O)CCCc3ccc4c(n3)NCCC4)CCC12` (racemic) [Cpd 3], the IC50 at Human αvβ3 worked out at 85 ± 8 nM; at human purified αVβ5 it was 230 ± 40 nM.
`O=C(O)CC1c2ccccc2C2CN(C(=O)CCc3ccc4c(n3)NCCC4)CC12` (racemic) [Cpd 12]: the IC50 on Human αvβ3 was determined as 26 ± 8 nM; at human purified αVβ5 it was 15 ± 2 nM.
Regarding `O=C(O)CC1c2ccccc2C2CCN(C(=O)CCCc3ccc4c(n3)NCCC4)CC21` (stereo not drawn) [Cpd 10, [2-(4-5,6,7,8-Tetrahydro-[1,8]naphthyridine-2-yl-butyryl)-2,3,4,4a,9,9a-hexahydro-1H-indeno[2,1-c]pyridin-9-yl]-acetic acid], the “Antagonist activity αVβ3, % @ 50 μM” value at Human αvβ3 stood at 51% @ 50 μM.
Turning to `O=C(O)C[C@H]1c2ccccc2[C@@H]2CN(C(=O)CCc3ccc4c(n3)NCCC4)C[C@H]12` [Cpd 14, [2-(3-5,6,7,8-Tetrahydro-[1,8]naphthyrin-2-yl-propionyl)-1,2,3,3a,8,8a-hexahydro-2-aza-cyclopenta[a]inden-8-yl]-acetic acid], the figures for the 50% inhibitory concentration (IC50) on Human αvβ3 and on human purified αVβ5 were 17 ± 3 nM and 5.8 ± 1.2 nM, respectively.
Regarding `O=C(O)CC1c2ccccc2C2CN(C(=O)CCc3ccc4c(n3)NCCC4)CCC12` (racemic) [Cpd 4], the concentration for half-maximal inhibition (IC50) at Human αvβ3 was 87 nM; at human purified αVβ5 it was 189 nM.
Regarding `O=C(O)CC1c2ccccc2C2CN(C(=O)CCCc3ccc4c(n3)NCCC4)CC12` (racemic) [Cpd 15], the concentration for half-maximal inhibition (IC50) on Human αvβ3 was 411 nM; at human purified αVβ5, 538 nM.
The corresponding values for `O=C(O)C[C@H]1c2ccccc2[C@@H]2CN(C(=O)Cc3cccc(NC4=NCCCN4)c3)CC[C@H]12` (single isomer, unassigned) [Cpd 2, (3-{2-[3-(1,4,5,6,-Tetrahydro-pyrimidin-2-ylamino)-phenyl]-acetyl}-2,3,4,4a,9,9a-hexahydro-1H-3-aza-fluoren-9-yl)-acetic acid] are 126 ± 40 nM and 217 ± 5 nM.
Turning to `O=C(O)CC1c2ccccc2C2CN(C(=O)CCCNc3ccccn3)CCC12` (stereo not drawn) [Cpd 6, {3-[4-(Pyridin-2-ylamino)-butyryl]-2,3,4,4a,9,9a-hexahydro-1H-3-aza-fluoren-9-yl}-acetic acid], the IC50 on Human αvβ3 was greater than 1 nM.

The values above are taken from patent US7351711B2, “Tricyclic indanyls as integrin inhibitors” (Janssen Pharmaceutical, N.V., priority 2003, dated 2008).
